Assay results: the NIST ThermoML archive (doi:10.1021/je900244c)
“And” between values parts separate entries of the source, which are not always exact repeats. Equal values may be shown once.

Assay: xn = mol fraction of the nth substance listed
Conditions: Gas, Buoyancy - hydrostatic balance with magnetic suspension - two sinkers

CC(C)C [2-methylpropane] + CCC
Conditions | mass density
303.15 K, 440.3 kPa, x2 = 0.503 | 9.824 kg/m3
303.15 K, 440.7 kPa, x2 = 0.503 | 9.834 kg/m3
303.15 K, 449.9 kPa, x2 = 0.503 | 10.061 kg/m3
303.15 K, 450 kPa, x2 = 0.503 | 10.069 kg/m3
303.15 K, 460 kPa, x2 = 0.503 | 10.317 kg/m3
303.15 K, 460.4 kPa, x2 = 0.503 | 10.325 kg/m3
303.15 K, 470.2 kPa, x2 = 0.503 | 10.57 kg/m3
303.15 K, 470.5 kPa, x2 = 0.503 | 10.581 kg/m3
303.15 K, 480 kPa, x2 = 0.503 | 10.823 kg/m3
303.15 K, 480.3 kPa, x2 = 0.503 | 10.83 kg/m3
303.15 K, 489.7 kPa, x2 = 0.503 | 11.072 kg/m3
303.15 K, 490.4 kPa, x2 = 0.503 | 11.087 kg/m3
303.15 K, 500.3 kPa, x2 = 0.503 | 11.344 kg/m3
303.15 K, 500.4 kPa, x2 = 0.503 | 11.344 kg/m3
303.15 K, 510.3 kPa, x2 = 0.503 | 11.608 kg/m3
303.15 K, 510.5 kPa, x2 = 0.503 | 11.6 kg/m3
303.15 K, 520.4 kPa, x2 = 0.503 | 11.861 kg/m3 and 11.864 kg/m3
303.15 K, 530.4 kPa, x2 = 0.503 | 12.121 kg/m3
303.15 K, 530.7 kPa, x2 = 0.503 | 12.129 kg/m3
303.15 K, 540.1 kPa, x2 = 0.503 | 12.37 kg/m3
303.15 K, 540.2 kPa, x2 = 0.503 | 12.378 kg/m3
303.15 K, 550.1 kPa, x2 = 0.503 | 12.642 kg/m3
303.15 K, 550.3 kPa, x2 = 0.503 | 12.642 kg/m3
303.15 K, 560.3 kPa, x2 = 0.503 | 12.914 kg/m3
303.15 K, 564.6 kPa, x2 = 0.503 | 13.019 kg/m3
303.15 K, 570.1 kPa, x2 = 0.503 | 13.17 kg/m3
303.15 K, 570.4 kPa, x2 = 0.503 | 13.178 kg/m3
303.15 K, 575.1 kPa, x2 = 0.503 | 13.306 kg/m3
303.15 K, 580.1 kPa, x2 = 0.503 | 13.434 kg/m3
303.15 K, 580.7 kPa, x2 = 0.503 | 13.453 kg/m3
303.15 K, 584.3 kPa, x2 = 0.503 | 13.548 kg/m3
303.15 K, 599.9 kPa, x2 = 0.799 | 12.55 kg/m3
303.15 K, 600.1 kPa, x2 = 0.799 | 12.557 kg/m3
303.15 K, 609.7 kPa, x2 = 0.799 | 12.784 kg/m3
303.15 K, 610.2 kPa, x2 = 0.799 | 12.802 kg/m3
303.15 K, 620.2 kPa, x2 = 0.799 | 13.04 kg/m3
303.15 K, 630.2 kPa, x2 = 0.799 | 13.289 kg/m3
303.15 K, 639.7 kPa, x2 = 0.799 | 13.516 kg/m3
303.15 K, 649.7 kPa, x2 = 0.799 | 13.757 kg/m3
303.15 K, 659.8 kPa, x2 = 0.799 | 14.006 kg/m3
303.15 K, 680.1 kPa, x2 = 0.799 | 14.516 kg/m3
303.15 K, 700 kPa, x2 = 0.799 | 15.01 kg/m3
303.15 K, 720 kPa, x2 = 0.799 | 15.515 kg/m3
303.15 K, 739.9 kPa, x2 = 0.799 | 16.028 kg/m3
303.15 K, 760.5 kPa, x2 = 0.799 | 16.557 kg/m3
303.15 K, 770.4 kPa, x2 = 0.799 | 16.821 kg/m3
303.15 K, 779.5 kPa, x2 = 0.799 | 17.055 kg/m3
303.15 K, 780.1 kPa, x2 = 0.799 | 17.073 kg/m3
303.15 K, 789.8 kPa, x2 = 0.799 | 17.319 kg/m3
303.15 K, 790.1 kPa, x2 = 0.799 | 17.342 kg/m3
303.15 K, 799.6 kPa, x2 = 0.799 | 17.59 kg/m3
323.15 K, 590.1 kPa, x2 = 0.244 | 13.582 kg/m3
323.15 K, 600.1 kPa, x2 = 0.244 | 13.847 kg/m3
323.15 K, 600.6 kPa, x2 = 0.249 | 13.833 kg/m3
323.15 K, 600.7 kPa, x2 = 0.249 | 13.848 kg/m3
323.15 K, 609.5 kPa, x2 = 0.244 | 14.1 kg/m3
323.15 K, 610.4 kPa, x2 = 0.249 | 14.09 kg/m3
323.15 K, 620.1 kPa, x2 = 0.249 | 14.354 kg/m3
323.15 K, 620.5 kPa, x2 = 0.244 | 14.391 kg/m3
323.15 K, 620.7 kPa, x2 = 0.249 | 14.369 kg/m3
323.15 K, 629.7 kPa, x2 = 0.244 | 14.643 kg/m3
323.15 K, 630.3 kPa, x2 = 0.249 | 14.633 kg/m3
323.15 K, 630.5 kPa, x2 = 0.244 | 14.658 kg/m3
323.15 K, 630.5 kPa, x2 = 0.249 | 14.64 kg/m3
323.15 K, 640.1 kPa, x2 = 0.249 | 14.889 kg/m3
323.15 K, 640.7 kPa, x2 = 0.244 | 14.937 kg/m3
323.15 K, 640.9 kPa, x2 = 0.249 | 14.923 kg/m3
323.15 K, 650.1 kPa, x2 = 0.249 | 15.168 kg/m3
323.15 K, 650.3 kPa, x2 = 0.244 | 15.201 kg/m3
323.15 K, 651.3 kPa, x2 = 0.244 | 15.223 kg/m3
323.15 K, 660 kPa, x2 = 0.249 | 15.436 kg/m3
323.15 K, 660.1 kPa, x2 = 0.249 | 15.447 kg/m3
323.15 K, 660.6 kPa, x2 = 0.244 | 15.487 kg/m3
323.15 K, 670 kPa, x2 = 0.244 | 15.744 kg/m3
323.15 K, 670 kPa, x2 = 0.249 | 15.714 kg/m3
323.15 K, 670.1 kPa, x2 = 0.249 | 15.719 kg/m3
323.15 K, 679.7 kPa, x2 = 0.244 | 16.015 kg/m3
323.15 K, 680.3 kPa, x2 = 0.249 | 15.998 kg/m3
323.15 K, 680.4 kPa, x2 = 0.249 | 16.006 kg/m3
323.15 K, 690.2 kPa, x2 = 0.244 | 16.31 kg/m3
323.15 K, 690.2 kPa, x2 = 0.249 | 16.277 kg/m3 and 16.285 kg/m3
323.15 K, 691.1 kPa, x2 = 0.244 | 16.328 kg/m3
323.15 K, 700.1 kPa, x2 = 0.244 | 16.592 kg/m3
323.15 K, 700.3 kPa, x2 = 0.249 | 16.571 kg/m3
323.15 K, 700.4 kPa, x2 = 0.249 | 16.571 kg/m3
323.15 K, 709.8 kPa, x2 = 0.244 | 16.868 kg/m3
323.15 K, 710 kPa, x2 = 0.249 | 16.835 kg/m3
323.15 K, 710.1 kPa, x2 = 0.249 | 16.843 kg/m3
323.15 K, 710.3 kPa, x2 = 0.244 | 16.875 kg/m3
323.15 K, 720.3 kPa, x2 = 0.249 | 17.129 kg/m3
323.15 K, 720.4 kPa, x2 = 0.249 | 17.137 kg/m3
323.15 K, 720.6 kPa, x2 = 0.244 | 17.177 kg/m3
323.15 K, 730 kPa, x2 = 0.249 | 17.416 kg/m3
323.15 K, 730.3 kPa, x2 = 0.249 | 17.408 kg/m3
323.15 K, 730.4 kPa, x2 = 0.244 | 17.456 kg/m3
323.15 K, 730.5 kPa, x2 = 0.244 | 17.456 kg/m3
323.15 K, 739.8 kPa, x2 = 0.249 | 17.687 kg/m3
323.15 K, 740 kPa, x2 = 0.249 | 17.697 kg/m3
323.15 K, 740.4 kPa, x2 = 0.244 | 17.75 kg/m3
323.15 K, 749.8 kPa, x2 = 0.244 | 18.022 kg/m3
323.15 K, 750 kPa, x2 = 0.249 | 17.989 kg/m3 and 17.996 kg/m3
323.15 K, 750.2 kPa, x2 = 0.244 | 18.029 kg/m3
323.15 K, 759.7 kPa, x2 = 0.249 | 18.276 kg/m3
323.15 K, 759.9 kPa, x2 = 0.249 | 18.276 kg/m3
323.15 K, 761.2 kPa, x2 = 0.244 | 18.357 kg/m3
323.15 K, 769.7 kPa, x2 = 0.244 | 18.602 kg/m3
323.15 K, 769.9 kPa, x2 = 0.249 | 18.577 kg/m3
323.15 K, 770 kPa, x2 = 0.249 | 18.577 kg/m3
323.15 K, 770.4 kPa, x2 = 0.499 | 16.983 kg/m3
323.15 K, 770.7 kPa, x2 = 0.499 | 16.982 kg/m3
323.15 K, 780 kPa, x2 = 0.249 | 18.871 kg/m3
323.15 K, 780.2 kPa, x2 = 0.499 | 17.239 kg/m3
323.15 K, 780.3 kPa, x2 = 0.499 | 17.244 kg/m3
323.15 K, 780.5 kPa, x2 = 0.249 | 18.894 kg/m3
323.15 K, 790.6 kPa, x2 = 0.244 | 19.228 kg/m3
323.15 K, 790.6 kPa, x2 = 0.499 | 17.513 kg/m3
323.15 K, 799.9 kPa, x2 = 0.249 | 19.467 kg/m3
323.15 K, 800.2 kPa, x2 = 0.499 | 17.765 kg/m3 and 17.769 kg/m3
323.15 K, 810.5 kPa, x2 = 0.499 | 18.042 kg/m3
323.15 K, 820.2 kPa, x2 = 0.499 | 18.299 kg/m3
323.15 K, 820.4 kPa, x2 = 0.499 | 18.307 kg/m3
323.15 K, 830.3 kPa, x2 = 0.499 | 18.572 kg/m3
323.15 K, 840.3 kPa, x2 = 0.499 | 18.844 kg/m3
323.15 K, 840.4 kPa, x2 = 0.499 | 18.848 kg/m3
323.15 K, 850.3 kPa, x2 = 0.499 | 19.121 kg/m3
323.15 K, 860.2 kPa, x2 = 0.499 | 19.387 kg/m3
323.15 K, 860.4 kPa, x2 = 0.499 | 19.398 kg/m3
323.15 K, 870.4 kPa, x2 = 0.499 | 19.669 kg/m3
323.15 K, 879.9 kPa, x2 = 0.499 | 19.938 kg/m3
323.15 K, 880.4 kPa, x2 = 0.499 | 19.948 kg/m3
323.15 K, 890.2 kPa, x2 = 0.499 | 20.228 kg/m3
323.15 K, 900.1 kPa, x2 = 0.499 | 20.506 kg/m3
323.15 K, 900.6 kPa, x2 = 0.499 | 20.517 kg/m3
323.15 K, 910.1 kPa, x2 = 0.499 | 20.784 kg/m3
323.15 K, 920.3 kPa, x2 = 0.499 | 21.078 kg/m3
323.15 K, 920.6 kPa, x2 = 0.499 | 21.087 kg/m3
323.15 K, 930.3 kPa, x2 = 0.499 | 21.359 kg/m3
323.15 K, 939.7 kPa, x2 = 0.499 | 21.637 kg/m3
323.15 K, 939.8 kPa, x2 = 0.499 | 21.635 kg/m3
323.15 K, 950.6 kPa, x2 = 0.499 | 21.949 kg/m3
323.15 K, 960.2 kPa, x2 = 0.499 | 22.222 kg/m3
323.15 K, 960.3 kPa, x2 = 0.499 | 22.242 kg/m3
323.15 K, 970.3 kPa, x2 = 0.499 | 22.521 kg/m3
323.15 K, 978.9 kPa, x2 = 0.499 | 22.767 kg/m3
323.15 K, 979.6 kPa, x2 = 0.499 | 22.791 kg/m3
